Tested on: PRP platelets
Test: PRP platelets stored with Sul 136, aggregation after stimulation with ADP
Format: cell-based
Parameters: key to aggregation of the platelets after stimulation with ADP: +means that the cells show aggregation and can thus be activated upon stimulation; −means no aggregation upon stimulation
Experimental: […] • The color and coagulation properties were visually analysed. • The thrombocyte cells that survived were counted and it was evaluated whether the thrombocytes were aggregated. • It was evaluated if the thrombocytes still were able to function after stimulation by the addition of ADP or under influence of collagen in a 96 well plate. • The adhesion was evaluated, meaning the ability of the platelets to bind collagen in a 6 well plate preincubated with collagen. • Via an ELISA assay, it was evaluated whether thromboxane was secreted from the platelets. Thromboxane facilitates aggregation and is produced by activated blood platelets.
(+means that the cells show aggregation and can thus be activated upon stimulation, −means no aggregation upon stimulation)

Compound: Cc1c(C)c2c(c(C)c1O)CCC(C)(C(=O)N1CCN(CC(=O)O)CC1)O2 (racemic) [SUL - 136, 2-(4-(6-hydroxy-2,5,7,8-tetramethylchroman-2-carbonyl)piperazin-1-yl)acetic acid]
- activity after stimulation with ADP (10 mM): still showed activity
- aggregation of the platelets after stimulation with ADP (10 min 0.001 mM, 0 h): +
- aggregation of the platelets after stimulation with ADP (10 min 0.001 mM, 24 h): −
- aggregation of the platelets after stimulation with ADP (10 min 0.001 mM, 48 h): −
- aggregation of the platelets after stimulation with ADP (10 min 0.001 mM, 72 h): −
- aggregation of the platelets after stimulation with ADP (10 min 0.001 mM, 216 h): −
- aggregation of the platelets after stimulation with ADP (10 min 0.01 mM, 0 h): +
- aggregation of the platelets after stimulation with ADP (10 min 0.01 mM, 24 h): −
- aggregation of the platelets after stimulation with ADP (10 min 0.01 mM, 48 h): −
- aggregation of the platelets after stimulation with ADP (10 min 0.01 mM, 72 h): −
- aggregation of the platelets after stimulation with ADP (10 min 0.01 mM, 216 h): −
- aggregation of the platelets after stimulation with ADP (10 min 0.1 mM, 0 h): +
- aggregation of the platelets after stimulation with ADP (10 min 0.1 mM, 24 h): −
- aggregation of the platelets after stimulation with ADP (10 min 0.1 mM, 48 h): −
- aggregation of the platelets after stimulation with ADP (10 min 0.1 mM, 72 h): −
- aggregation of the platelets after stimulation with ADP (10 min 0.1 mM, 216 h): −
- aggregation of the platelets after stimulation with ADP (10 min 1 mM, 0 h): +
- aggregation of the platelets after stimulation with ADP (10 min 1 mM, 24 h): −
- aggregation of the platelets after stimulation with ADP (10 min 1 mM, 48 h): −
- aggregation of the platelets after stimulation with ADP (10 min 1 mM, 72 h): −
- aggregation of the platelets after stimulation with ADP (10 min 1 mM, 216 h): −
- aggregation of the platelets after stimulation with ADP (10 min 10 mM, 0 h): +
- aggregation of the platelets after stimulation with ADP (10 min 10 mM, 24 h): +
- aggregation of the platelets after stimulation with ADP (10 min 10 mM, 48 h): +
- aggregation of the platelets after stimulation with ADP (10 min 10 mM, 72 h): +
- aggregation of the platelets after stimulation with ADP (10 min 10 mM, 216 h): +
- aggregation of the platelets after stimulation with ADP (60 min 0.001 mM, 0 h): +
- aggregation of the platelets after stimulation with ADP (60 min 0.001 mM, 24 h): −
- aggregation of the platelets after stimulation with ADP (60 min 0.001 mM, 48 h): −
- aggregation of the platelets after stimulation with ADP (60 min 0.001 mM, 72 h): −
- aggregation of the platelets after stimulation with ADP (60 min 0.001 mM, 216 h): −
- aggregation of the platelets after stimulation with ADP (60 min 0.01 mM, 0 h): +
- aggregation of the platelets after stimulation with ADP (60 min 0.01 mM, 24 h): −
- aggregation of the platelets after stimulation with ADP (60 min 0.01 mM, 48 h): −
- aggregation of the platelets after stimulation with ADP (60 min 0.01 mM, 72 h): −
- aggregation of the platelets after stimulation with ADP (60 min 0.01 mM, 216 h): −
- aggregation of the platelets after stimulation with ADP (60 min 0.1 mM, 0 h): +
- aggregation of the platelets after stimulation with ADP (60 min 0.1 mM, 24 h): −
- aggregation of the platelets after stimulation with ADP (60 min 0.1 mM, 48 h): −
- aggregation of the platelets after stimulation with ADP (60 min 0.1 mM, 72 h): −
- aggregation of the platelets after stimulation with ADP (60 min 0.1 mM, 216 h): −
- aggregation of the platelets after stimulation with ADP (60 min 1 mM, 0 h): +
- aggregation of the platelets after stimulation with ADP (60 min 1 mM, 24 h): −
- aggregation of the platelets after stimulation with ADP (60 min 1 mM, 48 h): −
- aggregation of the platelets after stimulation with ADP (60 min 1 mM, 72 h): −
- aggregation of the platelets after stimulation with ADP (60 min 1 mM, 216 h): −
- aggregation of the platelets after stimulation with ADP (60 min 10 mM, 0 h): +
- aggregation of the platelets after stimulation with ADP (60 min 10 mM, 24 h): +
- aggregation of the platelets after stimulation with ADP (60 min 10 mM, 48 h): +
- aggregation of the platelets after stimulation with ADP (60 min 10 mM, 72 h): +
- aggregation of the platelets after stimulation with ADP (60 min 10 mM, 216 h): −

From US11006626B2, “Compounds for protection of cells” (Sulfateq B.V., priority 2012, dated 2021)
